From patent US20240246920A1, “TRIAZOLE DERIVATIVES WITH ANTIFUNGAL ACTIVITY” (King's College London, priority 2020, published 2024)
≈ marks a conversion by molar mass, not a printed value. Read-outs that look alike come from different tables or passages of the source.

Experiments:
[1] = test system: Galleria mellonella larvae; assay: Toxicity to larvae in the Galleria mellonella model; format: in vivo; conditions: dose of 50 mg/kg
C. glabrata NCPF8018 = assay: Candida panel MIC, serial dilution in 96-well plates; format: cell-based, Candida glabrata; conditions: Nakaseomyces glabratus
In short: (§1)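 MIC taken as lowest concentration inhibiting growth ≥50% relative to drug-free control, from OD530 after 24 hours at 37° C. Fungi at 0.5-5×10^5/mL were exposed to serially diluted compound in RPMI 1640/MOPS/2% glucose medium adjusted to pH 7.0.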

C. auris 8971 = assay: as above; format: cell-based, Candida auris; conditions: Candidozyma auris, 8971; Table 4, extended panel; 24 hours, ≥50% inhibition; read-out: MIC C. auris 8971
In short: (§2)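 Broth microdilution in RPMI 1640 with MOPS and 2% glucose, pH 7.0; C. auris inoculum 0.5-5×10^5/mL, one strain per plate, 24 h at 37° C.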

C. auris 8984 = assay: as above; format: cell-based, Candida auris; conditions: Candidozyma auris, 8984; Table 4, extended panel; 24 hours, ≥50% inhibition; read-out: MIC C. auris 8984
In short: as §2

C. auris 8977 = assay: as above; format: cell-based, Candida auris; conditions: Candidozyma auris, 8977; Table 4, extended panel; 24 hours, ≥50% inhibition; read-out: MIC C. auris 8977
In short: as §2

C. krusei NCPF3876 = assay: microbe, parasite or virus in culture; format: cell-based, Candida krusei; conditions: Pichia kudriavzevii
In short: as §1

C. tropicalis NCPF8760 = assay: Candida panel MIC, serial dilution in 96-well plates; format: cell-based
In short: (§3)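 MIC = lowest concentration inhibiting growth by ≥50% relative to fungus-only control, read by OD530 after 24 h at 37 °C. Medium: RPMI 1640 buffered with MOPS, 2% glucose, pH 7.0. Range 128–0.25 μg/mL; starting inoculum 0.5-5×10^5/mL.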

Candida auris TDG1102 = assay: as above; format: cell-based; conditions: Candidozyma auris, TDG1102; Table 4, extended panel; 24 hours, ≥50% inhibition; read-out: MIC Candida auris TDG1102
In short: as §3

C. auris TDG1912 = assay: as above; format: cell-based; conditions: Candidozyma auris, TDG1912; Table 4; 24 hours, ≥50% inhibition; read-out: MIC C. auris TDG1912
In short: as §3

Candida auris TDG2512 = assay: as above; format: cell-based; conditions: Candidozyma auris, TDG2512; Table 4, extended panel; 24 hours, ≥50% inhibition; read-out: MIC Candida auris TDG2512
In short: as §3

C. auris strain TDG1912 = assay: Galleria mellonella infection model, larval survival; format: in vivo; conditions: G. mellonella infected with C. auris TDG1912; survival over 120 hours
Experimental: The effects of test compounds in-vivo was assessed using a Galleria mellonella infection model.
G. mellonella were injected in a proleg with 10 μL of C. auris strain TDG1912 (OD4) at a concentration of 1×10^6 cfu/10 μL using a Hamilton syringe and left for 30 minutes to recover from injection and to allow infection to begin. The G. mellonella were then injected with 10 μL of the compound of the invention at either 50 mg/kg (10% DMSO) or 20 mg/kg (4% DMSO) or PBS containing 10% DMSO as an infection-only control. 10 larvae were selected for each treatment, and the experiment was repeated 3 times for the test compound and fluconazole. Survival of larvae was monitored for a 5 day period and results are presented as % survival over 120 hours (see FIG. 1).

C. albicans NCPF3281 = assay: Candida panel MIC, serial dilution in 96-well plates; format: cell-based, Candida albicans; conditions: NCPF3281, read-out: MIC C. albicans NCPF3281
In short: as §3

C. parapsilosis NCPF3209 = assay: microbe, parasite or virus in culture; format: cell-based, Candida parapsilosis; conditions: Lodderomyces parapsilosis
In short: as §1

C. albicans 3645 = assay: Candida albicans panel MIC; format: cell-based; conditions: Table 6, Candida albicans panel
Experimental: (§4) The minimum inhibitory concentration of test compounds were determined in a panel of Candida species (see Table 4 below), using the a serial dilution method in 96-well plates using the following protocol.
(§5) Starter cultures of fungal strains to be tested were grown in 3 mL of RPMI 2% glucose media incubated at 37° C. with shaking at 200 rpm overnight. The culture media used was 900 mL H2O; 10.4 g RPMI 1640 (with L-glutamine and a pH indicator but without bicarbonate); 34.5 g MOPS and 18 g glucose. The pH of the media was adjusted to 7.0 with 1 M sodium hydroxide.
(§6) Solutions of the compound to be tested were prepared by dissolving the compound in DMSO and subsequently into media to the desired concentrations. 200 μL of compound solution was then added to the wells of the 96-well plate using a serial dilution method row-by row of the plate to give a compound concentration gradient across the plate of from 128 μg/mL to 0.25 μg/mL. The last two rows of each plate were control rows containing the culture media alone and the media plus fungi.
(§7) The fungi starter cultures were diluted 1:10 in water in cuvettes. This was then further diluted to an optical density (OD600) of 0.01 in media. 100 μL of the fungi was added to each well giving a starting concentration of fungus of 0.5-5×10^5/mL. One species of fungus was used on each plate. The plates were then held at 37° C. for 24 hours.
(§8) A plate reader was used to measure growth in each well at OD530 nm and the MIC was determined for each test compound. The MIC is defined as the lowest concentration giving rise to inhibition of ≥50% of that of the drug-free control well containing the fungus and media.
(§9) The compounds shown in Table 6 were tested against a further panel of Candida albicans.

C. albicans 3880 = assay: Candida albicans panel MIC; format: cell-based; conditions: Table 6, Candida albicans panel
Experimental: as §4, §5, §6, §7, §8, §9

C. albicans 3990 = assay: Candida albicans panel MIC; format: cell-based; conditions: Table 6, Candida albicans panel
Experimental: as §4, §5, §6, §7, §8, §9

C. albicans 8112 = assay: Candida albicans panel MIC; format: cell-based; conditions: Table 6, Candida albicans panel
Experimental: as §4, §5, §6, §7, §8, §9

C. albicans 3881 = assay: Candida albicans panel MIC; format: cell-based; conditions: Table 6, Candida albicans panel
Experimental: as §4, §5, §6, §7, §8, §9

C. albicans 3363 = assay: Candida albicans panel MIC; format: cell-based; conditions: Table 6, Candida albicans panel
Experimental: as §4, §5, §6, §7, §8, §9

C. albicans 3882 = assay: Candida albicans panel MIC; format: cell-based; conditions: Table 6, Candida albicans panel
Experimental: as §4, §5, §6, §7, §8, §9

Candida auris TDG2506 = assay: microbe, parasite or virus in culture; format: cell-based; conditions: Candidozyma auris, TDG2506; Table 4, extended panel; 24 hours, ≥50% inhibition; read-out: MIC Candida auris TDG2506
In short: as §2

Candida auris TDG2211 = assay: microbe, parasite or virus in culture; format: cell-based; conditions: Candidozyma auris, TDG2211; Table 4, extended panel; 24 hours, ≥50% inhibition; read-out: MIC Candida auris TDG2211
In short: as §2

OC(CN1CCC(Nc2ccc(OCCN3CCOCC3)cc2)CC1)(Cn1cncn1)c1ccc(F)cc1F (stereo not drawn) [Example 6, 2-(2,4-Difluorophenyl)-1-(4-((4-(2-morpholinoethoxy)phenyl)amino)piperidin-1-yl)-3-(1H-1,2,4-triazol-1-yl)propan-2-ol]
Toxicity to the larvae [1]: No toxicity
MIC (C. glabrata NCPF8018; NCPF8018, read-out: MIC C. Glabrata NCPF8018): 2 to 4 µg/mL (≈ 3.69 to 7.37 µM)
MIC (C. glabrata NCPF8018; NCPF8018, Table 4, common panel, 24 hours, ≥50% inhibition, read-out: MIC C. glabrata NCPF8018): 0.25 µg/mL (≈ 0.461 µM)
MIC (C. auris 8971): 0.03 µg/mL (≈ 0.0553 µM)
MIC (C. auris 8984): 0.125 µg/mL (≈ 0.23 µM)
MIC (C. auris 8977): 0.06 µg/mL (≈ 0.111 µM)
MIC (C. krusei NCPF3876; NCPF3876, read-out: MIC C. Krusei NCPF3876): 0.125 µg/mL (≈ 0.23 µM)
MIC (C. krusei NCPF3876; NCPF3876, Table 4, common panel, 24 hours, ≥50% inhibition, read-out: MIC C. krusei NCPF3876): 0.125 µg/mL (≈ 0.23 µM)
MIC (C. tropicalis NCPF8760; NCPF8760, Table 4, common panel, 24 hours, ≥50% inhibition, read-out: MIC C. tropicalis NCPF8760): 0.008 µg/mL (≈ 0.0147 µM)
MIC (C. tropicalis NCPF8760; NCPF8760, read-out: MIC C. Tropicalis NCPF8760): 0.008 µg/mL (≈ 0.0147 µM)
MIC (Candida auris TDG1102): 0.12 µg/mL (≈ 0.221 µM)
MIC (C. auris TDG1912): 0.125 µg/mL (≈ 0.23 µM)
MIC (Candida auris TDG2512): 0.015 µg/mL (≈ 0.0276 µM)
Protection against multi-drug resistant C. auris (larval survival) (C. auris strain TDG1912): statistically significant protection
MIC (C. albicans NCPF3281; Candida albicans, Table 4, common panel, 24 hours, ≥50% inhibition): 0.004 µg/mL (≈ 0.00737 µM)
MIC (C. albicans NCPF3281; Table 6, Candida albicans panel): ≤ 0.125 µg/mL
MIC (C. parapsilosis NCPF3209; NCPF3209, read-out: MIC C. Parapsilosis NCPF3209): 0.015 µg/mL (≈ 0.0276 µM)
MIC (C. parapsilosis NCPF3209; NCPF3209, Table 4, common panel, 24 hours, ≥50% inhibition, read-out: MIC C. parapsilosis NCPF3209): 0.015 µg/mL (≈ 0.0276 µM)
MIC (C. albicans 3645): 0.0156 µg/mL (≈ 0.0287 µM)
MIC (C. albicans 3880): 0.25 µg/mL (≈ 0.461 µM)
MIC (C. albicans 3990): 0.25 µg/mL (≈ 0.461 µM)
MIC (C. albicans 8112): 0.0156 µg/mL (≈ 0.0287 µM)
MIC (C. albicans 3881): 0.5 µg/mL (≈ 0.921 µM)
MIC (C. albicans 3363): 0.25 µg/mL (≈ 0.461 µM)
MIC (C. albicans 3882): 0.5 µg/mL (≈ 0.921 µM)
MIC (Candida auris TDG2506): 0.25 µg/mL (≈ 0.461 µM)
MIC (Candida auris TDG2211): 0.5 µg/mL (≈ 0.921 µM)
